The values that follow come from ChEMBL document CHEMBL1201862, “PubChem BioAssay data set” (2004).

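Five concentrations, 48 hours, 96-well plates. GI50: concentration for 50% inhibition of growth.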 Calls of active or inactive are those of the source. Rule as the data show it: active = GI50 up to about 1.1 µM and inactive = higher.

Holding throughout (assay): inhibition of tumour cell growth, NCI panel, 48 h
Assay [1] relates to A498.
In assay [2] the test system is A549.
For assay [3], the system named is BT-549.
For assay [4], the system named is EKVX.
Assay [5] concerns HCC 2998.
Assay [6] has as its system HOP-92.
For assay [7], the system named is KM12.
Assay [8] concerns MOLT-4.
The subject of assay [9] is NCI/ADR-RES.
In assay [10] the test system is SF-268.
For assay [11], the system named is SF-539.
The test system of assay [12] is SK-MEL-28.
Assay [13] relates to SNB-75.
The subject of assay [14] is UACC-62.
In assay [15] the test system is HT-29.
For assay [16], the system named is PC-3.
For assay [17], the system named is HL-60.
In assay [18] the test system is LOX IMVI.
Assay [19] relates to Hs-578T.

For `Cc1n[nH]c(=O)n1/N=C/c1ccc(F)cc1`, the GI50 in assay [1] was 90.8 µM (inactive); in assay [2] it was > 100 µM (inactive); in assay [3], > 100 µM (inactive); in assay [4], 92.9 µM (inactive); in assay [5] it was > 100 µM (inactive); in assay [6], > 100 µM (inactive). The GI50 in assay [7], in assay [8], in assay [9], in [10], in [11] and in [12] was > 100 µM (inactive) in each case. For the same molecule, the GI50 in assay [13] was 65.2 µM (inactive); in assay [14] it was > 100 µM (inactive).

For `CCOC1=NC(O)c2cccn2-c2sccc21` (stereo unspecified), the GI50 in assay [1] is 56.8 µM (inactive); in assay [2], 43.2 µM (inactive); in assay [5], > 100 µM (inactive); in [6] it was > 100 µM (inactive); in assay [15], > 100 µM (inactive); in assay [7], > 100 µM (inactive). The GI50 in [8] is 51.6 µM (inactive); in assay [9] it was > 100 µM (inactive); in assay [16] it was > 100 µM (inactive); in assay [10], > 100 µM (inactive); in assay [11] it was > 100 µM (inactive); in assay [12], > 100 µM (inactive). Further, the GI50 in [14] is > 100 µM (inactive).

Take `CN(/N=C/c1ccc(C(=O)O)cc1)C1=NCCCCN1`: the GI50 in [1], in [2], in [3], in assay [4], in assay [5] and in assay [17] was > 100 µM (inactive) in each case. In addition, the GI50 in [15], in assay [7], in [18], in assay [8], in assay [9] and in assay [16] was > 100 µM (inactive) each time. For the same molecule, the GI50 was > 100 µM (inactive) in [10]; > 100 µM (inactive) in assay [11]; > 100 µM (inactive) in [12]; 98.9 µM (inactive) in assay [13]; > 100 µM (inactive) in assay [14].

Consider `C/C=C(/I)CBr`, for which the GI50 in [1] is > 10 µM (inactive); in assay [2], 24.3 µM (inactive); in assay [4], 21.7 µM (inactive); in assay [5] it was 15.9 µM (inactive); in [17], 4.49 µM (inactive); in assay [6], 15.3 µM (inactive). The GI50 in assay [18] was 16.2 µM (inactive); in assay [8] it was 15.9 µM (inactive); in assay [10], 23.6 µM (inactive); in assay [11] it was 17 µM (inactive); in assay [12] it was 21 µM (inactive); in assay [13], > 10 µM (inactive). The GI50 in [14] is 15.5 µM (inactive).

`CCOC(=O)c1sc2c(c1OC(=O)c1cccs1)c(=O)n(-c1ccccc1)c(=S)n2-c1ccccc1`: the GI50 is 6.4 µM (inactive) in [1]; 12.3 µM (inactive) in [2]; 36.9 µM (inactive) in assay [4]; 16.6 µM (inactive) in assay [5]; 15.5 µM (inactive) in assay [17]; 24.5 µM (inactive) in [6]. Also, the GI50 in [15] was 3.9 µM (inactive); in assay [19], 23.7 µM (inactive); in assay [7], 16.1 µM (inactive); in assay [18] it was 15.7 µM (inactive); in [8] it was 10.7 µM (inactive); in assay [9], 11.1 µM (inactive). The GI50 was 12 µM (inactive) in [16]; 29.6 µM (inactive) in assay [10]; 16.7 µM (inactive) in assay [11]; 11.8 µM (inactive) in [12]; 83.6 µM (inactive) in [13]; 15.3 µM (inactive) in [14].

Turning to `COc1ccc(C(=O)/C=C/c2ccc(OCCCCCCCCCCOc3ccc(/C=C/C(=O)c4ccc(OC)c(OC)c4)cc3)cc2)c(OC)c1`, the GI50 in assay [2] was > 100 µM (inactive); in assay [4], > 100 µM (inactive); in assay [5], > 100 µM (inactive); in [17], > 100 µM (inactive); in [15], > 100 µM (inactive); in assay [19], 76 µM (inactive). Also, the GI50 in [7], in [8], in assay [9], in assay [16], in assay [10] and in assay [11] was > 100 µM (inactive) each time. The GI50 in assay [12], in [13] and in [14] was > 100 µM (inactive) throughout.

Turning to `Cc1ccc2c(O)cc(-c3ccc(Cl)s3)nc2n1`, the GI50 was 4.7 µM (inactive) in assay [1]; 1.14 µM (inactive) in assay [2]; 6.92 µM (inactive) in assay [4]; 1.34 µM (inactive) in assay [5]; 0.203 µM (active) in assay [17]; > 58.1 µM (inactive) in assay [6]. Further, the GI50 in assay [15] is 1.39 µM (inactive); in assay [19] it was 1.62 µM (inactive); in [7], 0.488 µM (active); in [18], 0.662 µM (active); in [8], 0.488 µM (active); in [9], 0.409 µM (active). For the same molecule, the GI50 in assay [16] is 1.57 µM (inactive); in assay [10], 4.1 µM (inactive); in [11], 0.538 µM (active); in [12] it was 0.665 µM (active); in assay [13], 1.4 µM (inactive); in assay [14], 0.643 µM (active).

For the molecule `O=C(c1ccc(Cl)cc1)c1ccc(OCC(=O)N2CCN(c3ccccc3)CC2)cc1`, the GI50 in assay [1] was 32.1 µM (inactive); in assay [2], > 100 µM (inactive); in [4], > 100 µM (inactive); in assay [5] it was > 100 µM (inactive); in assay [17] it was > 100 µM (inactive); in assay [6] it was > 100 µM (inactive). The GI50 in assay [15] is > 100 µM (inactive); in assay [7], > 100 µM (inactive); in [18], > 100 µM (inactive); in [8], 62.7 µM (inactive); in assay [10], > 100 µM (inactive); in [11], > 100 µM (inactive). The GI50 in assay [12], in [13] and in assay [14] was > 100 µM (inactive) in each case.

Consider `C/C(=C/CNc1ncnc2c1ncn2CCC(=O)O)CO`, for which the GI50 in assay [1], in assay [2], in assay [4], in assay [5], in assay [17] and in assay [6] was > 100 µM (inactive) in each case. Besides, the GI50 in assay [15], in assay [19], in [7], in [18], in assay [8] and in assay [9] was > 100 µM (inactive) each time. Further, the GI50 in assay [16], in assay [10], in assay [11], in assay [12], in [13] and in [14] was > 100 µM (inactive) throughout.

Regarding `O=C1OCC2=C1C(c1ccc3c(c1)OCO3)c1cc3c(cc1O2)OCO3` (stereo unspecified), the GI50 in [1] is 1.98 µM (inactive); in assay [2] it was 0.897 µM (active); in assay [4], 1.72 µM (inactive); in assay [5], 4.42 µM (inactive); in [17], 0.134 µM (active); in [6] it was 14.4 µM (inactive). The GI50 in assay [15] was 0.346 µM (active); in assay [19] it was 0.865 µM (active); in [18] it was 0.507 µM (active); in assay [8], 0.374 µM (active); in [9] it was 0.255 µM (active); in [16], 0.59 µM (active). Also, the GI50 in assay [10] is 1.94 µM (inactive); in [11], 0.522 µM (active); in [12], 1.72 µM (inactive); in assay [13], 0.5 µM (active); in assay [14], 0.364 µM (active).

Consider `O=C1Oc2cc3c(c4cccc1c24)O[C@H](c1ccccc1)[C@@H](c1ccccc1)[C@@H]3c1ccc(Cl)cc1`, for which the GI50 in [4] was > 100 µM (inactive); in assay [5], > 100 µM (inactive); in assay [17], > 100 µM (inactive); in [6] it was 28.8 µM (inactive); in assay [15], > 100 µM (inactive); in assay [19], 88.7 µM (inactive). Besides, the GI50 in assay [7] was > 100 µM (inactive); in [18], 68.4 µM (inactive); in assay [8] it was 19.6 µM (inactive); in assay [9], > 100 µM (inactive); in [16], > 100 µM (inactive); in assay [10] it was 31.9 µM (inactive). Also, the GI50 was 33.7 µM (inactive) in assay [11], > 100 µM (inactive) in assay [12] and 19.3 µM (inactive) in [14].

As to `O=C(/C=C1\Nc2ccccc2N\C1=C\C(=O)c1ccc(Cl)cc1)c1ccccc1`, the GI50 in assay [1] is 73.6 µM (inactive); in [2] it was 53 µM (inactive); in [3] it was 34.5 µM (inactive); in assay [4] it was > 100 µM (inactive); in assay [5] it was 74.8 µM (inactive); in assay [7], 64.4 µM (inactive). Also, the GI50 is 33.3 µM (inactive) in assay [18]; 7.87 µM (inactive) in assay [8]; > 100 µM (inactive) in [9]; > 100 µM (inactive) in assay [16]; > 100 µM (inactive) in assay [10]; 35.1 µM (inactive) in [11]. In addition, the figures for the GI50 in [12], in assay [13] and in assay [14] were 42.4 µM (inactive), 21.3 µM (inactive) and > 100 µM (inactive), respectively.

With `O=C1OC(CC(=O)c2ccccc2Cl)C(Cl)=C1Cl` (stereo unspecified), the GI50 in assay [2], in [4], in assay [5], in assay [17], in assay [6] and in assay [15] was > 100 µM (inactive) in each case. For the same molecule, the GI50 in [7], in [18], in assay [8], in assay [10], in [11] and in assay [12] was > 100 µM (inactive) in each case. Further, the GI50 in assay [14] is > 100 µM (inactive).
